Laboratory results from PubChem BioAssay AID1963870 (Molecular Pharmacology Branch, DTP, NCI, 2024).

System: 292921-168-R-J2-PDC KRAS tumor spheroid viability
Experiment: Anticancer human tumor 292921-168-R-J2-PDC patient-derived pancreatic carcinoma cell line growth inhibition [KRAS2]
Settings: spheroids with HUVEC and MSC; for viability, T/C: stronger effect = lower value
Outline: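 KRAS-mutant tumor cells were grown as spheroids with HUVEC endothelial cells and human MSCs as stroma. Targeted agents were tested alone and with KRAS pathway inhibitors. Doses started at or near clinical Cmax, or 10 microM, descending half-log.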

[1] = curve of first compound, second compound 0.1 µM
[2] = curve of first compound, second compound 0.316 µM
[3] = curve of first compound, second compound 1 µM
[4] = curve of first compound, second compound 3.16 µM
[5] = curve of first compound, second compound 10 µM
[6] = second compound 0.1 µM, first compound 0.0316 µM
[7] = second compound 0.1 µM, first compound 0.1 µM
[8] = second compound 0.1 µM, first compound 0.316 µM
[9] = second compound 0.1 µM, first compound 1 µM
[10] = second compound 0.1 µM, first compound 3.16 µM
[11] = second compound 0.1 µM, first compound 10 µM
[12] = second compound 0.316 µM, first compound 0.0316 µM
[13] = second compound 0.316 µM, first compound 0.1 µM
[14] = second compound 0.316 µM, first compound 0.316 µM
[15] = second compound 0.316 µM, first compound 1 µM
[16] = second compound 0.316 µM, first compound 3.16 µM
[17] = second compound 0.316 µM, first compound 10 µM
[18] = second compound 1 µM, first compound 0.0316 µM
[19] = second compound 1 µM, first compound 0.1 µM
[20] = second compound 1 µM, first compound 0.316 µM
[21] = second compound 1 µM, first compound 1 µM
[22] = second compound 1 µM, first compound 3.16 µM
[23] = second compound 1 µM, first compound 10 µM
[24] = second compound 3.16 µM, first compound 0.0316 µM
[25] = second compound 3.16 µM, first compound 0.1 µM
[26] = second compound 3.16 µM, first compound 0.316 µM
[27] = second compound 3.16 µM, first compound 1 µM
[28] = second compound 3.16 µM, first compound 3.16 µM
[29] = second compound 3.16 µM, first compound 10 µM
[30] = second compound 10 µM, first compound 0.0316 µM
[31] = second compound 10 µM, first compound 0.1 µM
[32] = second compound 10 µM, first compound 0.316 µM
[33] = second compound 10 µM, first compound 1 µM
[34] = second compound 10 µM, first compound 3.16 µM
[35] = second compound 10 µM, first compound 10 µM
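Further: drug exposure lasted seven days after spheroids formed for three days.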
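Wherever viability, T/C is given: percent of DMSO vehicle control viability which is 100%.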

Compound: COc1cc(Nc2ncc3c(n2)-c2ccc(Cl)cc2C(c2c(F)cccc2OC)=NC3)ccc1C(=O)O + CNCc1ccccc1-c1csc(C(C)Nc2nc(C)nc3cc(OC)c(OC)cc23)c1
- IC50 [1]: < 0.0316 µM
- IC50 [2]: < 0.0316 µM
- IC50 [3]: < 0.0316 µM
- IC50 [4]: < 0.0316 µM
- IC50 [5]: < 0.0316 µM
- viability, T/C [6]: 27.9%
- viability, T/C [7]: 24.7%
- viability, T/C [8]: 28.1%
- viability, T/C [9]: 25.4%
- viability, T/C [10]: 22.3%
- viability, T/C [11]: 16.5%
- viability, T/C [12]: 25.8%
- viability, T/C [13]: 22%
- viability, T/C [14]: 25.9%
- viability, T/C [15]: 23.9%
- viability, T/C [16]: 21.1%
- viability, T/C [17]: 14.9%
- viability, T/C [18]: 20.6%
- viability, T/C [19]: 19.1%
- viability, T/C [20]: 23.1%
- viability, T/C [21]: 19.4%
- viability, T/C [22]: 17.6%
- viability, T/C [23]: 13.4%
- viability, T/C [24]: 0.07%
- viability, T/C [25]: 0.05%
- viability, T/C [26]: 0.04%
- viability, T/C [27]: 0.05%
- viability, T/C [28]: 0.08%
- viability, T/C [29]: 0.19%
- viability, T/C [30]: 0.11%
- viability, T/C [31]: 0.1%
- viability, T/C [32]: 0.13%
- viability, T/C [33]: 0.1%
- viability, T/C [34]: 0.09%
- viability, T/C [35]: 0.15%

Compound: O=C(c1cc(Cc2n[nH]c(=O)c3ccccc23)ccc1F)N1CCN(C(=O)C2CC2)CC1
- viability, T/C (compound 0.0316 µM): 96.3% [middle of 5 runs]
- viability, T/C (compound 10 µM): 46% [middle of 5 runs]
- IC50 (curve of compound): 8.55 µM [middle of 5 runs]

Compound: COc1cc2nccc(Oc3ccc(NC(=O)C4(C(=O)Nc5ccc(F)cc5)CC4)cc3)c2cc1OC + CC1OCC2(CCN(c3cnc(Sc4ccnc(N)c4Cl)c(N)n3)CC2)C1N
- IC50 [1]: 1.61 µM
- IC50 [2]: 0.569 µM
- IC50 [3]: < 0.0316 µM
- IC50 [4]: < 0.0316 µM
- IC50 [5]: < 0.0316 µM
- viability, T/C [6]: 81%
- viability, T/C [7]: 82.6%
- viability, T/C [8]: 72%
- viability, T/C [9]: 65.9%
- viability, T/C [10]: 28.9%
- viability, T/C [11]: 19%
- viability, T/C [12]: 60.9%
- viability, T/C [13]: 61.4%
- viability, T/C [14]: 54.6%
- viability, T/C [15]: 45.1%
- viability, T/C [16]: 25.6%
- viability, T/C [17]: 17.1%
- viability, T/C [18]: 42.2%
- viability, T/C [19]: 45.7%
- viability, T/C [20]: 26.1%
- viability, T/C [21]: 33%
- viability, T/C [22]: 22.5%
- viability, T/C [23]: 13%
- viability, T/C [24]: 35.4%
- viability, T/C [25]: 33.5%
- viability, T/C [26]: 35.5%
- viability, T/C [27]: 26.8%
- viability, T/C [28]: 17.8%
- viability, T/C [29]: 12%
- viability, T/C [30]: 31.7%
- viability, T/C [31]: 30.2%
- viability, T/C [32]: 31.7%
- viability, T/C [33]: 24.9%
- viability, T/C [34]: 14.3%
- viability, T/C [35]: 9.5%
